Columns and labels:
Experiment in all cases: Bliss excess, mean over the matrix (fraction); higher = more synergy
[1] = tested on: HCC1500 (Breast Carcinoma)
Summary of the method: (§1)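 Cell lines grown in DMEM/F12 or RPMI with 10% FBS were plated in 1536-well plates and held 24 hours at 37°C, 5% CO2 before 72 hours of exposure to two-drug dose matrices, with DMSO typically at 0.2%. CellTiter-Glo 2.0 luminescence gave viability, which was converted to inhibition. Vehicle wells were set to 0 and blank wells to 1. Combination Emax is the second-highest inhibition in the matrix, and Bliss excess is the observed combination effect minus the expected EA + EB − EA·EB, where EA and EB are the single-agent effects.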

Hey (Ovarian Carcinoma) = tested on: Hey (Ovarian Carcinoma)
Summary of the method: as §1

[2] = tested on: LC-1-sq (Squamous Cell Lung Carcinoma)
Summary of the method: as §1

[3] = tested on: OACM5-1 (Esophageal Adenocarcinoma)
Summary of the method: as §1

Structure (SMILES)	Bliss excess [1]	Bliss excess (Hey (Ovarian Carcinoma))	Bliss excess [2]	Bliss excess [3]
Cc1cc2ncnn2cc1Nc1ncc2c(n1)n(C1CCOCC1)c(=O)n2C [AZD7648] + C=CCn1c(=O)c2cnc(Nc3ccc(N4CCN(C)CC4)cc3)nc2n1-c1cccc(C(C)(C)O)n1 [AZD1775] (first compound max 10 µM, partner max 1 µM)	0.0414	-0.0086	0.0567	-0.0206
CN(CCO)CC[C@H](CSc1ccccc1)Nc1ccc(S(=O)(=O)NC(=O)c2ccc(N3CCC([C@@H](O)c4ccccc4-c4ccc(Cl)cc4)CC3)cc2)cc1S(=O)(=O)C(F)(F)F [AZD4320] + Cc1cc2ncnn2cc1Nc1ncc2c(n1)n(C1CCOCC1)c(=O)n2C [AZD7648] (first compound max 1 µM, 7x7, partner max 10 µM)	-0.0027	-0.0728	-0.0093	-0.0545
Cc1cc2ncnn2cc1Nc1ncc2c(n1)n(C1CCOCC1)c(=O)n2C [AZD7648] + CN(C)CCCOc1ccc(-c2ccc3ncc4c(c3c2)n(C2CCOCC2)c(=O)n4C)cn1 [AZD0156] (first compound max 10 µM, 7x7, partner max 1 µM)	0.0414	0.0367	0.03	0.0206
Cc1cc2ncnn2cc1Nc1ncc2c(n1)n(C1CCOCC1)c(=O)n2C [AZD7648] + O=C(c1cc(Cc2n[nH]c(=O)c3ccccc23)ccc1F)N1CCN(C(=O)C2CC2)CC1 [Olaparib] (first compound max 10 µM, 7x7, partner max 10 µM)	-0.0234	-0.0088	-0.042	-0.0505
Cc1c2c(nn1C)CSCc1cc(n(C)n1)CSc1cc(c3ccccc3c1)OCCCc1c(C(=O)O)n(C)c3c-2c(Cl)ccc13 [AZD5991] + Cn1cnc2c(F)c(Nc3ccc(Br)cc3Cl)c(C(=O)NOCCO)cc21 [Selumetinib] (first compound max 1 µM, 7x7, partner max 3 µM)	0.0093	-0.0033	0.0393	0.0491
CN(CCO)CC[C@H](CSc1ccccc1)Nc1ccc(S(=O)(=O)NC(=O)c2ccc(N3CCC([C@@H](O)c4ccccc4-c4ccc(Cl)cc4)CC3)cc2)cc1S(=O)(=O)C(F)(F)F [AZD4320] + C[C@@H]1COCCN1C2=NC(=NC(=C2)C3(CC3)[S@](=N)(=O)C)C4=C5C=CNC5=NC=C4 [AZD6738] (first compound max 1 µM, 7x7, partner max 10 µM)	0.0444	-0.0697	0.0261	0.0144
C[C@@H](c1ccc2nccn2c1)n1nnc2ncc(-c3cnn(C)c3)nc21 [Savolitinib] + Cc1c2c(nn1C)CSCc1cc(n(C)n1)CSc1cc(c3ccccc3c1)OCCCc1c(C(=O)O)n(C)c3c-2c(Cl)ccc13 [AZD5991] (first compound max 1 µM, 7x7, partner max 1 µM)	-0.001	-0.0321	-0.0163	-0.0598
CN(CCO)CC[C@H](CSc1ccccc1)Nc1ccc(S(=O)(=O)NC(=O)c2ccc(N3CCC([C@@H](O)c4ccccc4-c4ccc(Cl)cc4)CC3)cc2)cc1S(=O)(=O)C(F)(F)F [AZD4320] + C1CN(CCC1(C(=O)N[C@@H](CCO)C2=CC=C(C=C2)Cl)N)C3=NC=NC4=C3C=CN4 [Capivasertib] (first compound max 1 µM, 7x7, partner max 3 µM)	-0.0178	-0.0385	-0.02	-0.0272
CN(CCO)CC[C@H](CSc1ccccc1)Nc1ccc(S(=O)(=O)NC(=O)c2ccc(N3CCC([C@@H](O)c4ccccc4-c4ccc(Cl)cc4)CC3)cc2)cc1S(=O)(=O)C(F)(F)F [AZD4320] + CCN(CCO)CCCOc1ccc2c(Nc3cc(CC(=O)Nc4cccc(F)c4)[nH]n3)ncnc2c1 [AZD2811] (first compound max 1 µM, 7x7, partner max 1 µM)	0.0758	-0.0022	0.0294	0.0473
COc1cc2ncnc(Nc3ccc(F)c(Cl)c3)c2cc1OCCCN1CCOCC1 [Gefitinib] + CC(C)n1c(=O)n(C)c2cnc3cc(F)c(-c4ccc(OCCCN5CCCCC5)nc4)cc3c21 [AZD1390] (first compound max 10 µM, 7x7, partner max 0.3 µM)	-0.0338	-0.0573	-0.0754	-0.112
CN(CCO)CC[C@H](CSc1ccccc1)Nc1ccc(S(=O)(=O)NC(=O)c2ccc(N3CCC([C@@H](O)c4ccccc4-c4ccc(Cl)cc4)CC3)cc2)cc1S(=O)(=O)C(F)(F)F [AZD4320] + Cn1cnc2c(F)c(Nc3ccc(Br)cc3Cl)c(C(=O)NOCCO)cc21 [Selumetinib] (first compound max 1 µM, 7x7, partner max 3 µM)	0.0166	0.0771	0.0514	0.0624
Cc1cc2ncnn2cc1Nc1ncc2c(n1)n(C1CCOCC1)c(=O)n2C [AZD7648] + C[C@@H]1COCCN1C2=NC(=NC(=C2)C3(CC3)[S@](=N)(=O)C)C4=C5C=CNC5=NC=C4 [AZD6738] (first compound max 10 µM, 7x7, partner max 10 µM)	0.0489	0.0229	0.0311	0.0198
CN(CCO)CC[C@H](CSc1ccccc1)Nc1ccc(S(=O)(=O)NC(=O)c2ccc(N3CCC([C@@H](O)c4ccccc4-c4ccc(Cl)cc4)CC3)cc2)cc1S(=O)(=O)C(F)(F)F [AZD4320] + C[C@@H](Nc1cc(F)cc(F)c1)c1cc(C(=O)N(C)C)cc2c(=O)cc(N3CCOCC3)oc12 [AZD8186] (first compound max 1 µM, 7x7, partner max 3 µM)	0.016	-0.0027	0.022	0.0343
Cc1cc2ncnn2cc1Nc1ncc2c(n1)n(C1CCOCC1)c(=O)n2C [AZD7648] + CCN(CCO)CCCOc1ccc2c(Nc3cc(CC(=O)Nc4cccc(F)c4)[nH]n3)ncnc2c1 [AZD2811] (first compound max 10 µM, 7x7, partner max 1 µM)	0.0507	0.113	0.0569	-0.0151
C[C@@H](c1ccc2nccn2c1)n1nnc2ncc(-c3cnn(C)c3)nc21 [Savolitinib] + CC1(C)CCC(CN2CCN(c3ccc(C(=O)NS(=O)(=O)c4ccc(NCC5CCOCC5)c([N+](=O)[O-])c4)c(Oc4cnc5[nH]ccc5c4)c3)CC2)=C(c2ccc(Cl)cc2)C1 [Venetoclax] (first compound max 1 µM, 7x7, partner max 1 µM)	-0.008	-0.0651	-0.0408	-0.0637
COc1cc2c(cc1OCCCCCOc1cc3c(cc1OC)C(=O)N1C=C(C)C[C@H]1C=N3)N=C[C@@H]1CC(C)=CN1C2=O [SG3199] + O=C(c1cc(Cc2n[nH]c(=O)c3ccccc23)ccc1F)N1CCN(C(=O)C2CC2)CC1 [Olaparib] (first compound max 0.001 µM, 7x7, partner max 10 µM)	-0.0144	-0.0086	-0.0029	-0.0313
Cc1nc(Nc2ncc(C(=O)Nc3c(C)cccc3Cl)s2)cc(N2CCN(CCO)CC2)n1 [Dasatinib] + CC(=O)Nc1cccc(-n2c(=O)n(C3CC3)c(=O)c3c(Nc4ccc(I)cc4F)n(C)c(=O)c(C)c32)c1 [Trametinib] (first compound max 2 µM, 7x7, partner max 1 µM)	-0.0599	0.001	-0.0577	-0.0912

— the supplement of paper PMC11061612
